The values below come from US5190961A, “Thiourea derivatives and antimicrobial agent and antulcer agent containing the same” (Terumo Kabushiki Kaisha, priority 1990, dated 1993).

≈ marks a conversion by molar mass, not a printed value.

For experiment [1], the system named is peptic ulcer induced by water immersion restraint stress. Kind of experiment: Inhibitory action against the peptic ulcer induced by water immersion restraint stress. The conditions noted are these: Rattus norvegicus; SD male rats, 32 mg/kg oral, water immersion restraint stress 23° C., 7 hours; read-out: Inhibitory action against stress peptic ulcer, Percent inhibition of p.u. formation. Type of experiment: in vivo. Here is the method:
(1) Inhibitory action against the peptic ulcer induced by water immersion restraint stress
SD male rats (weighing 200-300 g) were fasted for 24 hours before oral administration of a thiourea derivative of the invention at a dose of 32 mg/kg bodyweight. One hour later, the animal was put in a stress cage and loaded with water immersion restraint stress in a water bath at 23° C. Seven hours after loading with the stress, the rate was sacrificed with ether, and the stomach was excised and treated with formalin. Area (mm^2 ) of the lesions developed in the glandular stomach area was then measured. Results were expressed in sum of the lesions per animal which was referred to as peptic ulcer index.
(§1) It was confirmed that the thiourea derivatives of the invention not shown in the table also have a similar antiulcer activity.
Percent inhibition of the peptic ulcer formation (%) as shown in the table was calculated according to the following equation: [formula]

For another experiment, the system named is Helicobacter pylori. The experiment in a line: Antimicrobial activity against Helicobacter pylori (MIC). The note with it: NCTC11916, strain NCTC 11916, twofold dilution, 37° C., 3-5 days, O2 about 5%. Type of experiment: cell-based, Helicobacter pylori strain NCTC 11916. Here is the method:
(3) Antimicrobial activity against Helicobacter pylori
Antimicrobial activity of the thiourea derivatives according to the invention against Helicobacter pylori (or Campylobacter pylori) was evaluated by employing strain NCTC 11916 as a Helicobacter test organism and determining MIC (minimum inhibitory concentration) for the strain with the thiourea derivative.
The Helicobacter pylori was pre-incubated in a plate medium for 3-5 days. The medium was prepared by dissolving 38 g of a Mueller-Hinton medium (manufactured by Difco) in an appropriate amount of distilled water, sterilizing the solution in an autoclave, adding to the solution 50 ml of a horse hemolysis solution (manufactured by Nippon Seibutu Zairyou Center: Horse defibrinized blood, hemolyzed by a lyophilization treatment) and 2 ml of Skirrow, a Campylobacter selective supplement (manufactured by OXOID) containing vancomycin (5 mg), trimethoprim (2.5 mg) and polymyxin B (1250 IU) per vial (2 ml), and further an appropriate amount of distilled water to a volume of 1L in total and expanding and solidifying the solution on a dish. These antibiotics were contained for inhibition of the growth of microorganism other than Helicobacter pylori. The Helicobacter pylori pre-incubated under slightly aerobic conditions (an O2 concentration of about 5%) at 37° C. for 3-5 days was suspended in a physiological saline solution in a concentration of approximately 10^8 organisms/ml. Approximately 10-20 μl of the suspension was inoculated on a medium for MIC measurement in cross streaks. […] The DMSO solution was formed by the twofold dilution method. As in the pre-incubation, the Helicobacter pylori was cultured under slightly aerobic conditions at 37° C. for 3-5 days. After completion of the culture, growth of the microoranisms on the streaks was visually determined. The minimum concentration of the thiourea derivative in which no growth was observed was taken as MIC.
It was confirmed that the thiourea derivatives of the invention not shown in the table also have a similar antimicrobial activity.

A further experiment concerns ethanol peptic ulcer. The experiment in a line: Inhibitory action against ethanol peptic ulcer. It is filed as in vivo. The note with it: Rattus norvegicus; SD male rats, 32 mg/kg oral, 1 hour before ethanol 0.5 ml/100 g; read-out: Inhibitory action against ethanol peptic ulcer, Percent inhibition of p.u. formation. Here is the method: (2) Inhibitory action against ethanol peptic ulcer
SD male rats (weighing 200-300 g) were fasted for 24 hours before oral administration of a thiourea derivative of the invention at a dose of 32 mg/kg bodyweight. One hour later, ethanol was orally given in a volume of 0.5 ml/100 g bodyweight. One hour after treating with ethanol, the rat was sacrificed with ether, and the stomach was excised and treated with formalin. Area (mm^2) of the lesions developed in the glandular stomach area was then measured. Results were expressed in sum of the lesions per animal which was referred to as peptic ulcer index.
as §1
Percent inhibition of the peptic ulcer formation (%) as shown in the table was calculated according to the same equation as mentioned above.

As usually defined, the MIC is the lowest concentration that inhibits growth of the organism. Low readings indicate a more susceptible organism, high ones a less susceptible organism. On to `O=C(CCCNC(=S)Nc1ccccc1C(F)(F)F)NCCCOc1cccc(CN2CCCCC2)c1` [Example 22, 1-[3-[N-[3-[3-(piperidinomethyl)phenoxy]propyl]carbamoyl]propyl]-3-(2-trifluoromethylphenyl)thiourea], for which the inhibition in vivo at 32 mg/kg in experiment [1] came out at 83.3%; in the experiment on ethanol peptic ulcer it was 76.4%. In the experiment with Helicobacter pylori, the MIC stood at 6.25 µg/mL (≈ 11.6 µM).
The like results for `O=C(CCCNC(=S)Nc1ccccc1[N+](=O)[O-])NCCCOc1cccc(CN2CCCCC2)c1` [Example 23, 1-[3-[N-[3-[3-(piperidinomethyl)phenoxy]propyl]carbamoyl]propyl]-3-(O-nitrophenyl)thiourea] were, in that order, 76.4%, 72.3% and 6.25 µg/mL (≈ 12.2 µM).
In the case of `COCOc1ccccc1NC(=S)NCCCC(=O)NCCCOc1cccc(CN2CCCCC2)c1` [Example 24, 1-[3-[N-[3-[3-(piperidinomethyl)phenoxy]propyl]carbamoyl]propyl]-3-(2-methoxymethoxyphenyl)thiourea], the inhibition in vivo at 32 mg/kg worked out at 60.3% in experiment [1] and 70.3% with ethanol peptic ulcer. The same compound yielded an MIC against Helicobacter pylori of 12.5 µg/mL (≈ 23.6 µM).
The like results for `COc1ccc(NC(=S)NCCCC(=O)NCCCOc2cccc(CN3CCCCC3)c2)cn1` [Example 25, 1-[3-[N-[3-[3-(piperidinomethyl)phenoxy]propyl]carbamoyl]propyl]-3-[3-(6-methoxypyridyl)]thiourea] were, in that order, 65.6%, 72.5% and 6.25 µg/mL (≈ 12.5 µM).
With `O=C(CCCNC(=S)NCc1ccco1)NCCCOc1cccc(CN2CCCCC2)c1` [Example 26, 1-[3-[N-[3-[3-(piperidinomethyl)phenoxy]propyl]carbamoyl]propyl]-3-furfurylthiourea], the inhibition in vivo at 32 mg/kg turned out to be 74.4% in experiment [1] and 90.3% in the experiment on ethanol peptic ulcer. This compound also displayed an MIC against Helicobacter pylori of 6.25 µg/mL (≈ 13.2 µM).
For `O=C(CCCNC(=S)NCc1cccs1)NCCCOc1cccc(CN2CCCCC2)c1` [Example 27, 1-[3-[N-[3-[3-(piperidinomethyl)phenoxy]propyl]carbamoyl]propyl]-3-(2-thienylmethyl)thiourea], the inhibition in vivo at 32 mg/kg came to 72.5% in experiment [1] and 88.2% with ethanol peptic ulcer. Moreover, in the experiment with Helicobacter pylori, the lowest concentration to inhibit growth (MIC) was 6.25 µg/mL (≈ 12.8 µM).
Turning to `O=C(CCCCCNC(=S)Nc1ccccc1)NCCCOc1cccc(CN2CCCCC2)c1` [Example 28, 1-[5-[N-[3-[3-(piperidinomethyl)phenoxy]propyl]carbamoyl]pentyl]-3-phenylthiourea], the inhibition in vivo at 32 mg/kg in experiment [1] is 73.2%; with ethanol peptic ulcer, 75.5%. In the experiment with Helicobacter pylori, this compound gave a minimal inhibitory concentration (MIC) of 12.5 µg/mL (≈ 25.2 µM).
